For assay [1], the target named is T1, JAK3 (Homo sapiens, UniProt P52333).
T1 sequence (P52333 1-1124): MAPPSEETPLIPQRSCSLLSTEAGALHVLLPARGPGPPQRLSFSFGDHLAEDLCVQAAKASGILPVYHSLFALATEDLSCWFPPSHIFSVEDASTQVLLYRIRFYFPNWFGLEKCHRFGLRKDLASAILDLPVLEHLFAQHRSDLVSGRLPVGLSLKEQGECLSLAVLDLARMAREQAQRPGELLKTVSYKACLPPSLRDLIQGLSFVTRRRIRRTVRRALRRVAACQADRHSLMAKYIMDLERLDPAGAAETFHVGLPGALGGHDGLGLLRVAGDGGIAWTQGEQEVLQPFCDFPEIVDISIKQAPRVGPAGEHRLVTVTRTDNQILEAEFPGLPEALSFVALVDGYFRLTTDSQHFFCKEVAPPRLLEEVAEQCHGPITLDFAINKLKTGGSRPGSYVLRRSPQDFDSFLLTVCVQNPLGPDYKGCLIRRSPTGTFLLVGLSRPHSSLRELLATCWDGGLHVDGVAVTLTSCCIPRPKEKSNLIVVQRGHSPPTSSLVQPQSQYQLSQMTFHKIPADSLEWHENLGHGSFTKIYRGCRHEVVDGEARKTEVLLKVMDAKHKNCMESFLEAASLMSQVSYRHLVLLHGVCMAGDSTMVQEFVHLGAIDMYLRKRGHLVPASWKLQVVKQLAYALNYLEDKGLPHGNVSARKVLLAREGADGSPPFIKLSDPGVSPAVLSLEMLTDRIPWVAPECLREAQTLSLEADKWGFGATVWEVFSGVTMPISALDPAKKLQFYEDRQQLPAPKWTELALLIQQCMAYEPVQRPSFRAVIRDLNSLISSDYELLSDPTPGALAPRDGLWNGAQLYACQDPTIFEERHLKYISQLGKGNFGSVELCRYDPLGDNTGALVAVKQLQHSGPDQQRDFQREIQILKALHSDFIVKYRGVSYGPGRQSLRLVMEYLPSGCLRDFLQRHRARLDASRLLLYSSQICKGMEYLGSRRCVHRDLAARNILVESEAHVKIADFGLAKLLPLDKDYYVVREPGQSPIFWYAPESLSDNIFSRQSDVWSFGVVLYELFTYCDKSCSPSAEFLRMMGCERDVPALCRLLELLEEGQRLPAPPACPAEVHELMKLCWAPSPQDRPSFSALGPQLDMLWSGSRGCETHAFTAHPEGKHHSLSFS
The experiment in a line: Inhibition of a panel of kinases, in vitro HotSpot kinase assay: JAK3. It is filed as biochemical. The conditions noted are these: D-compounds panel data; 1 μM ATP; read-out: IC50 JAK3.

Assay [2] deals with T2, BTK-WT (Homo sapiens, UniProt Q06187).
T2 construct: purified from insect cells as a full-length construct containing an N-terminal 6X-His tag; His6 (N); made in house; host or cells: insect cells (baculovirus Sf21 in Method B)
The experiment in a line: Btk in vitro inhibitory activity (one of Method A TR-FRET, Method B electrophoretic mobility shift, Method C radiometric filter binding). It is filed as biochemical. The conditions noted are these: D-compounds panel data; read-out: IC50 BTK-WT. (In general: Mobility shift assays separate free from complexed probe on a gel.)

Broadly, the IC50 is the midpoint of a concentration-inhibition curve.

T2 sequence (Q06187 whole entry): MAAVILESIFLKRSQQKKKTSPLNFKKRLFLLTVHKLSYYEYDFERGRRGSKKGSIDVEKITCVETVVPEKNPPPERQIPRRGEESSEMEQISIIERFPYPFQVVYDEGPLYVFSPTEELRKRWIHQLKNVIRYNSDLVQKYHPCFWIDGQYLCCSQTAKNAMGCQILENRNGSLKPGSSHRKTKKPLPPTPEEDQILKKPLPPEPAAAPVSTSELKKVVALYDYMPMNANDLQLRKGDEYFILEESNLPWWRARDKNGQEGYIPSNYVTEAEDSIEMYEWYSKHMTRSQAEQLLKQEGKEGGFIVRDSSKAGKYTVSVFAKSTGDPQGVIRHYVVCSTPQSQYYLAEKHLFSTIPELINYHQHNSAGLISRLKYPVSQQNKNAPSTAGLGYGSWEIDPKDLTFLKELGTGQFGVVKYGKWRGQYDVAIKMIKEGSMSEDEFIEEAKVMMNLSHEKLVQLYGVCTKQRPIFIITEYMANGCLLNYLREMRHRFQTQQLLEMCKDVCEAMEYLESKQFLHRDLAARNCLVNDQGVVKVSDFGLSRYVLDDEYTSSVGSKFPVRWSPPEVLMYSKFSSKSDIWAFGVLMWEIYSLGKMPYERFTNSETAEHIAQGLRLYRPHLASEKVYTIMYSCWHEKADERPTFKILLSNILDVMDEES

As for `COC(C)(C)c1ccc(C(=O)N[C@@H]2CCCN(c3cnc(C(N)=O)c(Nc4cnn(C)c4)n3)[C@@H]2C)cc1` [Example D-161, 5-[(2R,3R)-3-[4-(2-methoxypropan-2-yl)benzamido]-2-methylpiperidin-1-yl]-3-[(1-methyl-1H-pyrazol-4-yl)amino]pyrazine-2-carboxamide], the values for the IC50 in assay [1] and in assay [2] were 1000 to 10000 nM and at most 10 nM, respectively.
The corresponding values for `C[C@@H]1[C@H](NC(=O)c2ccc(C3CC3)cc2F)CCCN1c1cnc(C(N)=O)c(Nc2ccc(S(=O)(=O)N3CCCC3)cc2)n1` [Example D-139, 5-[(2R,3R)-3-(4-cyclopropyl-2-fluorobenzamido)-2-methylpiperidin-1-yl]-3-{[4-(pyrrolidine-1-sulfonyl)phenyl]amino}pyrazine-2-carboxamide] are above 10000 nM and at most 10 nM.
The corresponding values for `C[C@@H]1[C@H](NC(=O)c2ccc(C3CC3)cc2)CCCN1c1cnc(C(N)=O)c(Nc2ccc(OC3C[C@H]4CC[C@@H](C3)N4C)cc2)n1` (stereo partly drawn) [Example D-104, 5-[(2R,3R)-3-(4-cyclopropylbenzamido)-2-methylpiperidin-1-yl]-3-[(4-{[(1R,5S)-8-methyl-8-azabicyclo[3.2.1]octan-3-yl]oxy}phenyl)amino]pyrazine-2-carboxamide] are 100 to 1000 nM and at most 10 nM.
For `C[C@@H]1[C@H](NC(=O)N(C)C)CCCN1c1cnc(C(N)=O)c(Nc2cc(C3CCN(C4CCCC4)CC3)ns2)n1` [Example D-163, 3-{[3-(1-cyclopentylpiperidin-4-yl)-1,2-thiazol-5-yl]amino}-5-[(2R,3R)-3-[(dimethylcarbamoyl)amino]-2-methylpiperidin-1-yl]pyrazine-2-carboxamide], in that order: 100 to 1000 nM and at most 10 nM.
In the case of `C[C@@H]1[C@H](NC(=O)c2ccc(C3CC3)cc2)CCCN1c1cnc(C(N)=O)c(Nc2ccc(C3(C)CCN(C4CCCC4)CC3)cc2)n1` [Example D-112, 3-{[4-(1-cyclopentyl-4-methylpiperidin-4-yl)phenyl]amino}-5-[(2R,3R)-3-(4-cyclopropylbenzamido)-2-methylpiperidin-1-yl]pyrazine-2-carboxamide], the IC50 is 100 to 1000 nM in assay [1] and at most 10 nM in assay [2].
The corresponding values for `C[C@@H]1[C@H](NC(=O)c2ccc(C3CC3)cc2)CCCN1c1cnc(C(N)=O)c(Nc2ccc(OC3CCN(C4CCCC4)CC3)cc2)n1` [Example D-101, 3-({4-[(1-cyclopentylpiperidin-4-yl)oxy]phenyl}amino)-5-[(2R,3R)-3-(4-cyclopropylbenzamido)-2-methylpiperidin-1-yl]pyrazine-2-carboxamide] are 1000 to 10000 nM and at most 10 nM.
The corresponding values for `C[C@@H]1[C@H](NC(=O)c2ccc(C3CC3)cc2F)CCCN1c1cnc(C(N)=O)c(Nc2cnn(C)c2)c1` [Example D-117, 5-[(2R,3R)-3-(4-cyclopropyl-2-fluorobenzamido)-2-methylpiperidin-1-yl]-3-[(1-methyl-1H-pyrazol-4-yl)amino]pyridine-2-carboxamide] are 1000 to 10000 nM and 10 to 100 nM.
The corresponding values for `C[C@@H]1[C@H](NC(=O)c2ccc(C(C)(C)N(C)C)cc2)CCCN1c1cnc(C(N)=O)c(Nc2cnn(C)c2)n1` [Example D-108, 5-[(2R,3R)-3-{4-[2-(dimethylamino)propan-2-yl]benzamido}-2-methylpiperidin-1-yl]-3-[(1-methyl-1H-pyrazol-4-yl)amino]pyrazine-2-carboxamide] are above 10000 nM and at most 10 nM.
As to `C[C@@H]1[C@H](NC(=O)c2ccc(C3CC3)cc2)CCCN1c1cnc(C(N)=O)c(Nc2ccc(N3CCC(C(C)(C)O)CC3)cc2)n1` [Example D-100, 5-[(2R,3R)-3-(4-cyclopropylbenzamido)-2-methylpiperidin-1-yl]-3-({4-[4-(2-hydroxypropan-2-yl)piperidin-1-yl]phenyl}amino)pyrazine-2-carboxamide], the IC50 in assay [1] was 1000 to 10000 nM; in assay [2], at most 10 nM.
For `Cn1cc(Nc2nc(N3CCCC4(C3)CN(c3ccc(C5CC5)cc3)C(=O)O4)cnc2C(N)=O)cn1` [Example D-147, 5-[3-(4-cyclopropylphenyl)-2-oxo-1-oxa-3,7-diazaspiro[4.5]decan-7-yl]-3-[(1-methyl-1H-pyrazol-4-yl)amino]pyrazine-2-carboxamide], in that order: 1000 to 10000 nM and 10 to 100 nM.
The corresponding values for `C[C@@H]1[C@H](NC(=O)c2ccc(C3CC3)cc2)CCCN1c1cnc(C(N)=O)c(Nc2cc(CN3CCCCC3)ns2)n1` [Example D-140, 5-[(2R,3R)-3-(4-cyclopropylbenzamido)-2-methylpiperidin-1-yl]-3-{[3-(piperidin-1-ylmethyl)-1,2-thiazol-5-yl]amino}pyrazine-2-carboxamide] are 100 to 1000 nM and at most 10 nM.
The corresponding values for `CN1CCC(n2cc(Nc3nc(N4CCC[C@@H](n5ccc6cc(C7CC7)ccc6c5=O)C4)cnc3C(N)=O)cn2)CC1` [Example D-141, 5-[(3R)-3-(6-cyclopropyl-1-oxo-1,2-dihydroisoquinolin-2-yl)piperidin-1-yl]-3-{[1-(1-methylpiperidin-4-yl)-1H-pyrazol-4-yl]amino}pyrazine-2-carboxamide] are 1000 to 10000 nM and at most 10 nM.
Take `C[C@@H]1[C@H](n2ccc3cc(C4CC4)ccc3c2=O)CCCN1c1cnc(C(N)=O)c(Nc2ccc(N3CCN(C)CC3)cc2)n1` [Example D-6, 5-[(2R,3R)-3-(6-cyclopropyl-1-oxo-1,2-dihydroisoquinolin-2-yl)-2-methylpiperidin-1-yl]-3-{[4-(4-methylpiperazin-1-yl)phenyl]amino}pyrazine-2-carboxamide]: the IC50 is 1000 to 10000 nM in assay [1] and at most 10 nM in assay [2].
For the molecule `C[C@@H]1[C@H](NC(=O)c2ccc(C3CC3)cc2F)CCCN1c1cnc(C(N)=O)c(Nc2ccc(S(=O)(=O)N3CCN(C)CC3)cc2)n1` [Example D-130, 5-[(2R,3R)-3-(4-cyclopropyl-2-fluorobenzamido)-2-methylpiperidin-1-yl]-3-({4-[(4-methylpiperazin-1-yl)sulfonyl]phenyl}amino)pyrazine-2-carboxamide], the IC50 in assay [1] is above 10000 nM; in assay [2], at most 10 nM.
For `Cc1ccc(-c2cnc([C@@H]3CCCN(c4cnc(C(N)=O)c(Nc5cc(C)ns5)n4)[C@@H]3C)[nH]2)cc1` [Example D-131, 3-[(3-methyl-1,2-thiazol-5-yl)amino]-5-[(2R,3R)-2-methyl-3-[5-(4-methylphenyl)-1H-imidazol-2-yl]piperidin-1-yl]pyrazine-2-carboxamide], in that order: 100 to 1000 nM and 10 to 100 nM.
For `Cc1cc(Nc2nc(N3CCCC(c4ncc(-c5ccccc5)[nH]4)C3)cnc2C(N)=O)sn1` [Example D-164, 3-[(3-methyl-1,2-thiazol-5-yl)amino]-5-[3-(4-phenyl-3H-imidazol-2-yl)piperidin-1-yl]pyrazine-2-carboxamide], in that order: 100 to 1000 nM and 10 to 100 nM.
With `C[C@@H]1[C@H](NC(=O)c2ccc(C3CC3)cc2)CCCN1c1cnc(C(N)=O)c(Nc2ccc(OC3CCN(CC(F)(F)F)CC3)cc2)n1` [Example D-98, 5-[(2R,3R)-3-(4-cyclopropylbenzamido)-2-methylpiperidin-1-yl]-3-[(4-{[1-(2,2,2-trifluoroethyl)piperidin-4-yl]oxy}phenyl)amino]pyrazine-2-carboxamide], the IC50 is 1000 to 10000 nM in assay [1] and at most 10 nM in assay [2].
For `C[C@H]1CC[C@@H](NC(=O)c2ccc(C3CC3)cc2)CN1c1cnc(C(N)=O)c(Nc2ccc(N3CCN(C)CC3)cc2)n1` [Example D-154, 5-[(2S,5R)-5-(4-cyclopropylbenzamido)-2-methylpiperidin-1-yl]-3-{[4-(4-methylpiperazin-1-yl)phenyl]amino}pyrazine-2-carboxamide], in that order: 100 to 1000 nM and at most 10 nM.
The corresponding values for `Cc1ccc(-c2cnc([C@@H]3CCCN(c4cnc(C(N)=O)c(Nc5cc(C)ns5)n4)C3)[nH]2)cc1` [Example D-137, 3-[(3-methyl-1,2-thiazol-5-yl)amino]-5-[(3R)-3-[5-(4-methylphenyl)-1H-imidazol-2-yl]piperidin-1-yl]pyrazine-2-carboxamide] are above 10000 nM and 10 to 100 nM.

For the origin of these results see patent publication US20210070748A1, “INHIBITORS OF BRUTONS TYROSINE KINASE” (Pharmacyclics LLC, priority 2015, published 2021).
